Reference: US10689331B2, “IDO inhibitors” (Bristol-Myers Squibb Company, priority 2015, dated 2020)

Target: T1, human IDO1 (Homo sapiens, UniProt P14902)
T1 construct: expressed in transfected cells
Assay: HEK Human IDO-1 inhibition assay (kynurenine readout, Ehrlich reagent, absorbance 490 nm)
Assay type: cell-based
Details: human IDO1/HEK293 cells, incubated 20 hours with compound; 500 nM reference standard = 100% inhibition
Procedure, shortened: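 HEK293 cells stably expressing human IDO1, treated with compound for 20 h at 37 °C in phenol red-free RPMI/10% FBS. Kynurenine detected after TCA (0.2% final, 50 °C, 30 min) by Ehrlich reagent absorbance at 490 nm; IC50 normalised to 500 nM reference standard (100%) and DMSO (0%).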

T1 sequence (P14902 whole entry): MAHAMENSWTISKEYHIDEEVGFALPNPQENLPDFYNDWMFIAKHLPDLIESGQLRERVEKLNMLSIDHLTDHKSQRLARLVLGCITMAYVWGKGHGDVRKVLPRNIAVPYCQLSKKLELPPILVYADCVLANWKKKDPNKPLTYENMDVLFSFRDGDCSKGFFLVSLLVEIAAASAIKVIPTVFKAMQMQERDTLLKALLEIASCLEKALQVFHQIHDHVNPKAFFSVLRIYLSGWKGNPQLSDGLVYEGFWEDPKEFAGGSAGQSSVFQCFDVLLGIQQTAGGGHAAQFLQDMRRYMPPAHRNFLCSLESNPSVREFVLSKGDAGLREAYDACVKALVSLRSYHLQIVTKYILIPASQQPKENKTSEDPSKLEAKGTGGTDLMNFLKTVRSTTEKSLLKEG

| SMILES | IC50 [nM] |
| --- | --- |
| Cc1ccc(NC(=O)Nc2cc(OCC(=O)O)c(Cl)cc2N(CC(C)C)C2CCCCC2)cc1 [Example 122, 2-(2-chloro-4-(cyclohexyl(isobutyl)amino)-5-(3-(p-tolyl)ureido)phenoxy)acetic acid] | ≥ 100 |
| CC(C)CN(c1cc(F)c(OCC(=O)O)cc1NC(=O)Nc1ccccc1Cl)C1CCCCC1 [Example 123, 2-(5-(3-(2-chlorophenyl)ureido)-4-(cyclohexyl(isobutyl)amino)-2-fluorophenoxy)acetic acid] | ≥ 100 |
| CC(C)CN(c1cc(F)c(OCC(=O)O)cc1NC(=O)Nc1ccc(F)cc1F)C1CCCCC1 [Example 124, 2-(4-(cyclohexyl(isobutyl)amino)-5-(3-(2,4-difluorophenyl)ureido)-2-fluorophenoxy)acetic acid] | < 100 |
| CC(C)CN(c1cc(F)c(OCC(=O)O)cc1NC(=O)Nc1ccc(Br)cc1F)C1CCCCC1 [Example 125, 2-(5-(3-(4-bromo-2-fluorophenyl)ureido)-4-(cyclohexyl(isobutyl)amino)-2-fluorophenoxy)acetic acid] | < 5 |
| CC(C)CN(c1cc(F)c(OCC(=O)O)cc1NC(=O)Nc1cc(F)ccc1F)C1CCCCC1 [Example 126, 2-(4-(cyclohexyl(isobutyl)amino)-5-(3-(2,5-difluorophenyl)ureido)-2-fluorophenoxy)acetic acid] | < 5 |
| CC(C)CN(c1cc(F)c(OCC(=O)O)cc1NC(=O)Nc1ccc(OC(F)(F)F)cc1)C1CCCCC1 [Example 127, 2-(4-(cyclohexyl(isobutyl)amino)-2-fluoro-5-(3-(4-(trifluoromethoxy)phenyl)ureido)phenoxy)acetic acid] | < 100 |
| CC(C)CN(c1cc(F)c(OCC(=O)O)cc1NC(=O)Nc1ccc(C#N)nc1)C1CCCCC1 [Example 128, 2-(5-(3-(6-cyanopyridin-3-yl)ureido)-4-(cyclohexyl(isobutyl)amino)-2-fluorophenoxy)acetic acid] | ≥ 100 |
| CC(C)CN(c1cc(F)c(OCC(=O)O)cc1NC(=O)Nc1ccccc1F)C1CCCCC1 [Example 129] | < 100 |
| O=C(O)COc1ccc(N(CC2CC2)C2CCCCC2)c(NC(=O)Nc2cc(F)ccc2F)c1 [Example 130] | < 100 |
| Cc1ccc(NC(=O)Nc2cc(OCC(=O)O)ccc2N(CC2CC2)C2CCCCC2)cc1 [Example 131, 2-(4-(cyclohexyl(cyclopropylmethyl)amino)-3-(3-(p-tolyl)ureido)phenoxy)acetic acid] | ≥ 100 |
| CC(C)CN(c1cc(F)c(OCC(=O)O)cc1NC(=O)Cc1ccc(Cl)cc1F)C1CCCCC1 [Example 133, 2-(5-(2-(4-chloro-2-fluorophenyl)acetamido)-4-(cyclohexyl(isobutyl)amino)-2-fluorophenoxy)acetic acid] | < 100 |
| CC(C)CN(c1ccc(OCC(=O)NCC(F)(F)F)cc1NC(=O)Nc1ccc(Cl)cc1F)C1CCCCC1 [Example 135, 2-(3-(3-(4-chloro-2-fluorophenyl)ureido)-4-(cyclohexyl(isobutyl)amino)phenoxy)-N-(2,2,2-trifluoroethyl)acetamide] | ≥ 100 |
| C=C(C)CN(c1ccc(OCC(=O)O)cc1NC(=O)Nc1ccc(Cl)cc1F)C1CCOCC1 [Example 137, 2-(3-(3-(4-chloro-2-fluorophenyl)ureido)-4-((2-methylallyl)(tetrahydro-2H-pyran-4-yl)amino)phenoxy)acetic acid] | < 100 |
| C=C(C)CN(c1ccc(OC(C)C(=O)O)cc1NC(=O)Nc1ccc(Cl)cc1F)C1CCOCC1 (stereo not drawn) [Example 138, 2-(3-(3-(4-chloro-2-fluorophenyl)ureido)-4-((2-methylallyl)(tetrahydro-2H-pyran-4-yl)amino)phenoxy)propanoic acid] | < 100 |
| C=C(C)CN(c1ccc(OCC(=O)O)cc1NC(=O)Nc1ccc(Cl)cc1F)C1COC1 [Example 141, 2-(3-(3-(4-chloro-2-fluorophenyl)ureido)-4-((2-methylallyl)(oxetan-3-yl)amino)phenoxy)acetic acid] | ≥ 100 |
| C=C(C)CN1CCC(N(CC(=C)C)c2ccc(OCC(=O)O)cc2NC(=O)Nc2ccc(Cl)cc2F)CC1 [Example 142, 2-(3-(3-(4-chloro-2-fluorophenyl)ureido)-4-((2-methylallyl)(1-(2-methylallyl)piperidin-4-yl)amino)phenoxy)acetic acid] | < 100 |
| CC(C)CN(c1ccc(OCC(=O)O)cc1NC(=O)Nc1ccc(Cl)cc1F)C1CCOC1 (stereo not drawn) [Example 144, 2-(3-(3-(4-chloro-2-fluorophenyl)ureido)-4-(isobutyl(tetrahydrofuran-3-yl)amino)phenoxy)acetic acid] | ≥ 100 |
| CC(C)CN(c1ccc(OC(C)C(=O)O)cc1NC(=O)Nc1ccc(Cl)cc1F)C1CCOC1 (stereo not drawn) [Example 145, 2-(3-(3-(4-chloro-2-fluorophenyl)ureido)-4-(isobutyl(tetrahydrofuran-3-yl)amino)phenoxy)propanoic acid] | < 100 |

| SMILES | IC50 [nM] |
| --- | --- |
| CC(C)CN(c1ccc(OCC(=O)O)cc1NC(=O)Nc1ccc(Cl)cc1F)C1COC1 [Example 147, 2-(3-(3-(4-chloro-2-fluorophenyl)ureido)-4-(isobutyl(oxetan-3-yl)amino)phenoxy)acetic acid] | ≥ 100 |
| CC(Oc1ccc(N(CCC(F)(F)F)C2CCOCC2)c(NC(=O)Nc2ccc(Cl)cc2F)c1)C(=O)O (stereo not drawn) [Example 148, 2-(3-(3-(4-chloro-2-fluorophenyl)ureido)-4-((tetrahydro-2H-pyran-4-yl)(3,3,3-trifluoropropyl)amino)phenoxy)propanoic acid] | ≥ 100 |
| CC(C)CN(c1ccc(OCC(=O)O)cc1NC(=O)Nc1ccc(Cl)cc1F)C1CCC(O)CC1 (stereo not drawn) [Example 149, 2-(3-(3-(4-chloro-2-fluorophenyl)ureido)-4-((0-4-hydroxycyclohexyl)(isobutyl)amino)phenoxy)acetic acid] | ≥ 100 |
| CC(C)CN(c1ccc(OCC(=O)O)cc1NC(=O)Nc1ccc(Cl)cc1F)C1CCC(O)CC1 (stereo not drawn) [Example 150, 2-(3-(3-(4-chloro-2-fluorophenyl)ureido)-4-((( )-4 hydroxycyclohexyl)(isobutyl)amino)phenoxy)acetic acid] | ≥ 100 |
| CC(C)CN(c1ccc(OCC(=O)O)cc1NC(=O)Nc1ccc(Cl)cc1F)C1CCOCC1 [Example 151, 2-(3-(3-(4-chloro-2-fluorophenyl)ureido)-4-(isobutyl(tetrahydro-2H-pyran-4-yl)amino)phenoxy)acetic acid] | ≥ 100 |
| COC1CCC(N(CC(C)C)c2ccc(OCC(=O)O)cc2NC(=O)Nc2ccc(Cl)cc2F)CC1 (stereo not drawn) [Example 152, 2-(3-(3-(4-chloro-2-fluorophenyl)ureido)-4-(isobutyl(0-4-methoxycyclohexyl)amino)phenoxy)acetic acid] | ≥ 100 |
| CC(C)CN(c1ccc(OCC(N)=O)cc1NC(=O)Nc1ccc(Cl)cc1F)C1CCCCC1 [Example 153, 2-(3-(3-(4-chloro-2-fluorophenyl)ureido)-4-(cyclohexyl(isobutyl)amino)phenoxy)acetamide] | ≥ 100 |
| CC(C)CN(c1ccc(OCC(=O)Nc2ncco2)cc1NC(=O)Nc1ccc(Cl)cc1F)C1CCCCC1 [Example 154, 2-(3-(3-(4-chloro-2-fluorophenyl)ureido)-4-(cyclohexyl(isobutyl)amino)phenoxy)-N-(oxazol-2-yl)acetamide] | < 5 |
| CC(C)CN(c1ccc(OCC(=O)Nc2nccs2)cc1NC(=O)Nc1ccc(Cl)cc1F)C1CCCCC1 [Example 155, 2-(3-(3-(4-chloro-2-fluorophenyl)ureido)-4-(cyclohexyl(isobutyl)amino)phenoxy)-N-(thiazol-2-yl)acetamide] | ≥ 100 |
| CC(C)CN(c1ccc(OCc2ncco2)cc1NC(=O)Nc1ccc(Cl)cc1F)C1CCCCC1 [Example 156, 1-(4-chloro-2-fluorophenyl)-3-(2-(cyclohexyl(isobutyl)amino)-5-(oxazol-2-ylmethoxy)phenyl)urea] | < 100 |
| CC(C)CN(c1ccc(OC(C)c2ncco2)cc1NC(=O)Nc1ccc(Cl)cc1F)C1CCCCC1 (stereo not drawn) [Example 157, 1-(4-chloro-2-fluorophenyl)-3-(2-(cyclohexyl(isobutyl)amino)-5-(1-(oxazol-2-yl)ethoxy)phenyl)urea] | < 100 |
| CCCN(Cc1ccccc1)c1ccc(OCC(=O)O)cc1NC(=O)Nc1ccc(Cl)cc1F [Example 158, 2-(4-(benzyl(propyl)amino)-3-(3-(4-chloro-2-fluorophenyl)ureido)phenoxy)acetic acid] | < 100 |
| CCCN(Cc1ccccc1)c1ccc(OCC(=O)O)cc1NC(=O)Nc1ccc(C)cc1 [Example 159, 2-(4-(benzyl(propyl)amino)-3-(3-(p-tolyl)ureido)phenoxy)acetic acid] | ≥ 100 |
| CCCN(Cc1ccccc1)c1ccc(OCC(=O)O)cc1NC(=O)Nc1ccc(OC(F)(F)F)cc1 [Example 160, 2-(4-(benzyl(propyl)amino)-3-(3-(4-(trifluoromethoxy)phenyl)ureido)phenoxy)acetic acid] | ≥ 100 |
| CCCN(Cc1ccccc1)c1ccc(OCC(=O)O)cc1NC(=O)Nc1ccc(OCC)cc1 [Example 161, 2-(4-(benzyl(propyl)amino)-3-(3-(4-ethoxyphenyl)ureido)phenoxy)acetic acid] | ≥ 100 |
| CCCN(Cc1ccccc1)c1ccc(OCC(=O)O)cc1NC(=O)Nc1ccc(C(F)(F)F)cc1 [Example 162, 2-(4-(benzyl(propyl)amino)-3-(3-(4-(trifluoromethyl)phenyl)ureido)phenoxy)acetic acid] | ≥ 100 |
| CC(C)CN(Cc1ccc(Cl)cc1)c1ccc(OCC(=O)O)cc1NC(=O)Nc1ccc(Cl)cc1F [Example 163, 2-(3-(3-(4-chloro-2-fluorophenyl)ureido)-4-((4-chlorobenzyl)(isobutyl)amino)phenoxy)acetic acid] | < 100 |
| CCCN(Cc1ccc(Cl)cc1)c1ccc(OCC(=O)O)cc1NC(=O)Nc1ccc(Cl)cc1F [Example 164, 2-(3-(3-(4-chloro-2-fluorophenyl)ureido)-4-((4-chlorobenzyl)(propyl)amino)phenoxy)acetic acid] | < 100 |
